Source: ChEMBL document CHEMBL5154748, “Discovery of novel 3-butyl-6-benzyloxyphthalide Mannich base derivatives as multifunctional agents against Alzheimer's disease” (Bioorg Med Chem, 2022)
Active and inactive are the calls of the source. The rule behind the calls is not given here.

Tests used:
[1] = molecular target: T1, Amine oxidase [flavin-containing] A (Homo sapiens, UniProt P21397); test: Inhibition of human MAO-A at 10 uM by fluorescence assay
T1 sequence (P21397 whole entry): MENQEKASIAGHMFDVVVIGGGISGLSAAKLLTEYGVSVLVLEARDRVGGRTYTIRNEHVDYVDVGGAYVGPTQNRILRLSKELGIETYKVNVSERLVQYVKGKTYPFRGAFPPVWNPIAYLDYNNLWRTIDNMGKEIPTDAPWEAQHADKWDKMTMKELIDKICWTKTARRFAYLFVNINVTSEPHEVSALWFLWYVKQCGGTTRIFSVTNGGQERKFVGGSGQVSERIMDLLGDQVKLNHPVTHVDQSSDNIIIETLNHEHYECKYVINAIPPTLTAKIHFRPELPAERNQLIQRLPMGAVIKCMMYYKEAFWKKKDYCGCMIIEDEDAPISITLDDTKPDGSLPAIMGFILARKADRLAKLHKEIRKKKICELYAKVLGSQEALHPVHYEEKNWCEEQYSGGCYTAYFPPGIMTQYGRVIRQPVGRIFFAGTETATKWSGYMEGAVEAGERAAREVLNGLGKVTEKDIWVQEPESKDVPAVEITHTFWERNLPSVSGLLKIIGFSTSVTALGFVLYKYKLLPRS

[2] = molecular target: Acetylcholinesterase (Electrophorus electricus, UniProt O42275); test: Inhibition of Electric eel AChE by Ellman's method
[3] = molecular target: Butyrylcholinesterase (Rattus norvegicus) (UniProt Q9JKC1); test: Inhibition of Rat BuChE at 10 uM by Ellman's method
[4] = Antioxidant activity assessed as trolox equivalent of ORAC radical scavenging activity by ORAC-FL assay; format: functional
[5] = molecular target: T2, Amine oxidase [flavin-containing] B (Homo sapiens, UniProt P27338); test: Inhibition of human MAO-B at 10 uM by fluorescence assay
T2 sequence (P27338 whole entry): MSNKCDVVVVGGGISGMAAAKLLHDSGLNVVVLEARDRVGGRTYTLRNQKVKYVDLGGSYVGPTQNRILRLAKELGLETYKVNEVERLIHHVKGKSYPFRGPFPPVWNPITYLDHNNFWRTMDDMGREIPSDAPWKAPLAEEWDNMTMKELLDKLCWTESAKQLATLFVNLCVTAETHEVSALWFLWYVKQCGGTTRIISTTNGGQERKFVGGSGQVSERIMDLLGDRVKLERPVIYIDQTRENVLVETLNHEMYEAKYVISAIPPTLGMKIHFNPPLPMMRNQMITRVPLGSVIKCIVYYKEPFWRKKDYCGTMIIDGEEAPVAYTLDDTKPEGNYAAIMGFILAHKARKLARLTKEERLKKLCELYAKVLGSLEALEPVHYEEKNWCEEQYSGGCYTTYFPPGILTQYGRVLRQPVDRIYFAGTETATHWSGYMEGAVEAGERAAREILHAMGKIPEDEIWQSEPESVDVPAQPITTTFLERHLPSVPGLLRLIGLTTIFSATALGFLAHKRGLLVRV

[6] = system: BV-2; test: Inhibition of LPS-induced ROS production in mouse BV-2 cells at 10 uM by DCFH-DA staining based fluorescence analysis; format: functional, cell-based
[7] = system: BV-2; test: Antineuroinflammatory activity in mouse BV-2 cells assessed as inhibition of LPS-induced NO production at 10 uM after 24 hrs by Griess reagent based assay; format: functional
[8] = system: BV-2; test: Antineuroinflammatory activity in mouse BV-2 cells assessed as inhibition of LPS-induced TNF-alpha production at 0.5 uM after 24 hrs by ELISA; format: functional
[9] = system: BV-2; test: Antineuroinflammatory activity in mouse BV-2 cells assessed as inhibition of LPS-induced NO production at 2.5 uM after 24 hrs by Griess reagent based assay; format: functional
[10] = system: BV-2; test: Antineuroinflammatory activity in mouse BV-2 cells assessed as inhibition of LPS-induced TNF-alpha production at 2.5 uM after 24 hrs by ELISA; format: functional
[11] = system: BV-2; test: Antineuroinflammatory activity in mouse BV-2 cells assessed as inhibition of LPS-induced NO production at 0.5 uM after 24 hrs by Griess reagent based assay; format: functional
[12] = system: PC-12; test: Neuroprotective against H2O2-induced rat PC-12 cell injury assessed as cell viability at 10 uM by MTT assay (reference value: 48.0%); format: functional; conditions: read-out: Activity
[13] = system: BV-2; test: Antineuroinflammatory activity in mouse BV-2 cells assessed as inhibition of LPS-induced TNF-alpha production at 10 uM after 24 hrs by ELISA; format: functional
[14] = molecular target: T2, Amine oxidase [flavin-containing] B; test: Inhibition of human MAO-B by fluorescence assay
[15] = molecular target: T3, Acetylcholinesterase (Homo sapiens, UniProt P22303); test: Inhibition of Human AChE by Ellman's method
[16] = molecular target: Acetylcholinesterase (Electrophorus electricus) (UniProt O42275); test: Inhibition of Electric eel AChE at 10 uM by Ellman's method
[17] = Metal chelating activity assessed as Cu2+-compound complex formation at 37.5 uM by UV-visible spectrophotometry
[18] = system: PC-12; test: Neuroprotective against H2O2-induced rat PC-12 cell injury assessed as cell viability at 25 uM by MTT assay (reference value: 48.0%); format: functional; conditions: read-out: Activity
[19] = system: PC-12; test: Cytotoxicity against rat PC12 cells assessed as decrease in cell viability at 100 uM by MTT assay; format: toxicity, cell-based; conditions: pc-12, 100 µM
[20] = system: BV-2; test: Cytotoxicity against mouse BV-2 cells at 10 uM in presence of LPS by MTT method; format: toxicity, cell-based; conditions: bv-2, 10 µM
[21] = Inhibition of reactive oxygen species production using Cu-ascorbate redox system by coumarin-3-carboxylic acid dye based fluorescence analysis; format: functional
[22] = system: PC-12; test: Neuroprotective against H2O2-induced rat PC-12 cell injury assessed as cell viability at 4 uM by MTT assay (reference value: 48.0%); format: functional; conditions: read-out: Activity
[23] = system: BV-2; test: Inhibition of LPS-induced ROS production in mouse BV-2 cells assessed as complete reversal at 10 uM by DCFH-DA staining based fluorescence analysis; format: functional, cell-based
[24] = system: BV-2; test: Inhibition of LPS-induced ROS production in mouse BV-2 cells at 2.5 uM by DCFH-DA staining based fluorescence analysis; format: functional, cell-based
[25] = system: BV-2; test: Cytotoxicity against mouse BV-2 cells at 10 uM by MTT method; format: toxicity, cell-based; conditions: bv-2, 10 µM
[26] = molecular target: T3, Acetylcholinesterase; test: Mixed type inhibition of AChE (unknown origin) by Lineweaver-Burk plot analysis

Sequence of Acetylcholinesterase (Electrophorus electricus, UniProt O42275) (O42275 whole entry): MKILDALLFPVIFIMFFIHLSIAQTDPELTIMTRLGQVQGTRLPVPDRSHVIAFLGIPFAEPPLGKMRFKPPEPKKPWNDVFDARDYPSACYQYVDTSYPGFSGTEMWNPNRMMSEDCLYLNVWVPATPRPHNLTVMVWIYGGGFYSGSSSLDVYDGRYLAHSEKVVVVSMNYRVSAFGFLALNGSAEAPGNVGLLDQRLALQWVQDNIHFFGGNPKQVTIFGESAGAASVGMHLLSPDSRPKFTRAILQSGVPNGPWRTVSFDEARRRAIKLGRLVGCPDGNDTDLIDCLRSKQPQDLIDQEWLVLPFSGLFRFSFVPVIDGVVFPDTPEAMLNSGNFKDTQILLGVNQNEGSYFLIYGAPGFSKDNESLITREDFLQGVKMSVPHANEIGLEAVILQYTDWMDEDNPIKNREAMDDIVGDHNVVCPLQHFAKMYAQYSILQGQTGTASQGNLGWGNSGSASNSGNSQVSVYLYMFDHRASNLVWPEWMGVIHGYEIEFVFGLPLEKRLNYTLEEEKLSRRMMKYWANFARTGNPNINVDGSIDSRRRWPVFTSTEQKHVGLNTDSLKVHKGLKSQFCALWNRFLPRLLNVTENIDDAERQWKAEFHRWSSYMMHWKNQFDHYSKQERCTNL
Sequence of Butyrylcholinesterase (Rattus norvegicus) (Q9JKC1 as listed by the source): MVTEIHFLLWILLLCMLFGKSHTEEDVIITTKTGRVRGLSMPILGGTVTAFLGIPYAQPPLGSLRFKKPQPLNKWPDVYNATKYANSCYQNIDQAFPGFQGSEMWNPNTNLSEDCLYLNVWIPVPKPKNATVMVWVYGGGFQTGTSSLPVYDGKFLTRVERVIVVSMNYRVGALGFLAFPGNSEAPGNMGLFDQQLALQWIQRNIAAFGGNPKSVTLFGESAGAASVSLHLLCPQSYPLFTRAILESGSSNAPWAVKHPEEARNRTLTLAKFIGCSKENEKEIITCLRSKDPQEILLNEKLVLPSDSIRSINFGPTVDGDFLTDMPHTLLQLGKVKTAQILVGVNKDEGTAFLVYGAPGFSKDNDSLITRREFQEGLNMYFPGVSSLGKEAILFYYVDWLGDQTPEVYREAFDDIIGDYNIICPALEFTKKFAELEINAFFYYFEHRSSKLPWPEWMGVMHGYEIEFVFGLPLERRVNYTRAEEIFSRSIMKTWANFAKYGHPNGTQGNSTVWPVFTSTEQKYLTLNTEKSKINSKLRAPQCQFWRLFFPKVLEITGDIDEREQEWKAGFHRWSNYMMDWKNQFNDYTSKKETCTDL
Sequence of Acetylcholinesterase (Electrophorus electricus) (O42275 24-633 limits assumed): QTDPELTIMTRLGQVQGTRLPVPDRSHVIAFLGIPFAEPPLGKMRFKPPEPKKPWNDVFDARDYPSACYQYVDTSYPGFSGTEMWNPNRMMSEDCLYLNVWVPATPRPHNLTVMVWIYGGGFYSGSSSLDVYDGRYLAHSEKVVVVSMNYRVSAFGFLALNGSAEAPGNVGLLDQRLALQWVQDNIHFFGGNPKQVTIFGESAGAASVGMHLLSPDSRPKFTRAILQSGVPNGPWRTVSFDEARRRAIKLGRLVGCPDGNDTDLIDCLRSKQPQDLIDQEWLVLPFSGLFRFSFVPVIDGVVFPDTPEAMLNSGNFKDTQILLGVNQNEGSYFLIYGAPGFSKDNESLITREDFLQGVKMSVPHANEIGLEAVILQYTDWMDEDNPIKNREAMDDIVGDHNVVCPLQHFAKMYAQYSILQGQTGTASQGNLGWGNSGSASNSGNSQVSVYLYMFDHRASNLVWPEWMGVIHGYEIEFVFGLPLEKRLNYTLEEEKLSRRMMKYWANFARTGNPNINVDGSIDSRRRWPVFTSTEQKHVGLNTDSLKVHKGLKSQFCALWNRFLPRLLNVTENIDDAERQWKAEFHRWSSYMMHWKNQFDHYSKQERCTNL
T3 sequence (P22303 whole entry): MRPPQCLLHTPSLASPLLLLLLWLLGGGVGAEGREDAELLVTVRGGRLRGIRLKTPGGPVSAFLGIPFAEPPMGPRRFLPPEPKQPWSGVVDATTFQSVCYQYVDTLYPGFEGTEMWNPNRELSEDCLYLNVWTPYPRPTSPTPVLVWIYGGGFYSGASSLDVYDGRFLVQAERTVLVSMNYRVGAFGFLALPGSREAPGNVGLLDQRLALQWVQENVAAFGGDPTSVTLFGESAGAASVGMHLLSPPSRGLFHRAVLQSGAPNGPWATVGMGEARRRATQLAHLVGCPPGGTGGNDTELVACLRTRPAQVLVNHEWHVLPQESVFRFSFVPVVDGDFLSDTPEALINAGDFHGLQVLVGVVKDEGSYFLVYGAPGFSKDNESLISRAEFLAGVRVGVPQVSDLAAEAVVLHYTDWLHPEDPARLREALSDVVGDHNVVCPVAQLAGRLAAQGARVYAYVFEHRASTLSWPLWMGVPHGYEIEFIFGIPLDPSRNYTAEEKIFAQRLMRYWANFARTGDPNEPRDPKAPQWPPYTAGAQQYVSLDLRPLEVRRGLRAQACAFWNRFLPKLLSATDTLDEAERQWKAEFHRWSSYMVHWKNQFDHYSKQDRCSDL

| Structure (SMILES) | inhibition at 10 µM [1] [%] | IC50 [2] [µM] | inhibition [3] [%] | Activity [4] | inhibition at 10 µM [5] [%] | IC50 [14] [µM] | IC50 [15] [µM] | other results |
| --- | --- | --- | --- | --- | --- | --- | --- | --- |
| CCCCC1OC(=O)c2cc(OCc3cccc(CN4CCCCC4)c3O)ccc21 (configuration not stated) | 20 | 14.5 | 14.2 | 1.84 | 12.8 |  |  |  |
| CCCCC1OC(=O)c2ccccc21 (racemic) [RAC-3-N-BUTYLPHTHALIDE] |  |  |  | 0.21 |  |  |  | inhibition [6]: Active; inhibition at 10 µM [7]: 37.2%; inhibition at 0.5 µM [8]: 15.2%; inhibition at 2.5 µM [9]: 22.9%; inhibition at 2.5 µM [10]: 27.6%; inhibition at 0.5 µM [11]: 13.4%; viability at 10 µM [12]: 64.1%; inhibition at 10 µM [13]: 43.7% |
| CCCCC1OC(=O)c2cc(OCc3ccc(CN4CCN(CC)CC4)c(O)c3)ccc21 (configuration not stated) | 17.5 | 14.8 | 6.5 | 0.77 |  | 2.53 |  |  |
| CCCCC1OC(=O)c2cc(OCc3cccc(CN(CC)CC)c3O)ccc21 (configuration not stated) | 20.4 | 20.9 | < 5 | 2.02 | 5.2 |  |  |  |
| CCCCC1OC(=O)c2cc(OCc3ccc(CN(C)C)c(O)c3)ccc21 (configuration not stated) | 29 | 5.39 | 11.8 | 1.62 |  | 6.9 | 8.78 |  |
| CCCCC1OC(=O)c2cc(OCc3cccc(O)c3)ccc21 (configuration not stated) | 29.3 |  | < 5 | 0.88 |  | 3.3 |  | inhibition [16]: 38.6% |
| CCCCC1OC(=O)c2cc(OCc3ccc(CN4CCCC4)c(O)c3)ccc21 (configuration not stated) | 23.7 | 0.89 | 10 | 1.73 |  | 0.94 | 3.92 |  |
| CCCCC1OC(=O)c2cc(OCc3ccc(CN4CCN(C)CC4)c(O)c3)ccc21 (configuration not stated) | 22.5 | 13.6 | < 5 | 0.96 |  | 2.39 | 23.8 |  |
| CCCCC1OC(=O)c2cc(OCc3cccc(CN4CCN(C)CC4)c3O)ccc21 (configuration not stated) | 12.5 |  | < 5 | 2.33 | 32.3 |  |  | inhibition [16]: 29.4% |
| CCCCC1OC(=O)c2cc(OCc3cccc(CN(CC)Cc4ccccc4)c3O)ccc21 (configuration not stated) | 5.4 |  | < 5 | 1.86 | 12.5 |  |  | inhibition [16]: 15.3% |
| CCCCC1OC(=O)c2cc(OCc3cccc(CN4CCOCC4)c3O)ccc21 (configuration not stated) | 18.4 | 22.4 | 5.8 | 2.14 |  | 7.63 |  |  |
| CCCCC1OC(=O)c2cc(OCc3ccc(CN(CC)CC)c(O)c3)ccc21 (configuration not stated) | 26.3 | 0.64 | 8.1 | 1.53 |  | 6.81 | 0.35 |  |
| CCCCC1OC(=O)c2cc(OCc3ccccc3O)ccc21 (configuration not stated) | 30.3 |  | < 5 | 1.03 |  | 2.07 |  | inhibition [16]: 20.3% |
| CCCCC1OC(=O)c2cc(OCc3ccc(CN4CCCCC4)c(O)c3)ccc21 (configuration not stated) | 18.1 | 0.087 | < 5 | 1.86 |  | 0.3 | 0.041 | Activity [17]: Active; viability at 25 µM [18]: 80.2%; inhibition at 10 µM [7]: 58.9%; inhibition at 0.5 µM [8]: 32.7%; Activity [19]: Toxic; Activity [20]: Non-Toxic; inhibition [21]: Active; inhibition at 2.5 µM [9]: 43.5%; inhibition at 2.5 µM [10]: 47.8%; viability at 4 µM [22]: 56.3%; inhibition [23]: Active; inhibition [24]: Active; inhibition at 0.5 µM [11]: 30.4%; Activity [25]: Non-Toxic; inhibition [26]: Active; viability at 10 µM [12]: 71.1%; inhibition at 10 µM [13]: 63.2% |
| CCCCC1OC(=O)c2cc(OCc3ccc(CN(CC)Cc4ccccc4)c(O)c3)ccc21 (configuration not stated) | 14.8 | 20.5 | 5.6 | 1.15 |  | 1.96 |  |  |
| CCCCC1OC(=O)c2cc(OCc3cccc(CN4CCCC4)c3O)ccc21 (configuration not stated) | 23.5 | 26.7 | 5.8 | 2.38 | 6.9 |  |  |  |
| CCCCC1OC(=O)c2cc(OCc3cccc(CN4CCN(CC)CC4)c3O)ccc21 (configuration not stated) | 12.8 |  | < 5 | 1.67 | 28.8 |  |  | inhibition [16]: 20.7% |
| CCCCC1OC(=O)c2cc(OCc3ccc(CN4CCOCC4)c(O)c3)ccc21 (configuration not stated) | 27.9 | 8.37 | < 5 | 1.12 |  | 1.42 | 3.32 |  |
